Reference: ChEMBL document CHEMBL1125891, “Synthesis, molecular modeling studies, and muscarinic receptor activity of azaprophen analogues” (J Med Chem, 1991)
“And” between values parts separate entries of the source, which are not always exact repeats. Equal values may be shown once.

How the values were obtained:
[1] = target: Muscarinic acetylcholine receptor; test: Inhibition of methacholine induced phasic contraction of guinea pig ileum; type: functional, tissue-based, Cavia porcellus
[2] = target: Muscarinic acetylcholine receptor; test: Inhibition of [3H]QNB binding against muscarinic acetylcholine receptor in rat heart.
[3] = species on record: Cavia porcellus; test: Inhibition against methacholine induced phasic contraction in guinea pig ileum; type: functional; settings: read-out: pA2 (converted)
[4] = target: T1, Muscarinic acetylcholine receptor M3 (Rattus norvegicus, UniProt P08483); test: Binding activity against rat muscarinic acetylcholine receptor M3 using [3H]QNB as the radioligand
T1 sequence (P08483 whole entry): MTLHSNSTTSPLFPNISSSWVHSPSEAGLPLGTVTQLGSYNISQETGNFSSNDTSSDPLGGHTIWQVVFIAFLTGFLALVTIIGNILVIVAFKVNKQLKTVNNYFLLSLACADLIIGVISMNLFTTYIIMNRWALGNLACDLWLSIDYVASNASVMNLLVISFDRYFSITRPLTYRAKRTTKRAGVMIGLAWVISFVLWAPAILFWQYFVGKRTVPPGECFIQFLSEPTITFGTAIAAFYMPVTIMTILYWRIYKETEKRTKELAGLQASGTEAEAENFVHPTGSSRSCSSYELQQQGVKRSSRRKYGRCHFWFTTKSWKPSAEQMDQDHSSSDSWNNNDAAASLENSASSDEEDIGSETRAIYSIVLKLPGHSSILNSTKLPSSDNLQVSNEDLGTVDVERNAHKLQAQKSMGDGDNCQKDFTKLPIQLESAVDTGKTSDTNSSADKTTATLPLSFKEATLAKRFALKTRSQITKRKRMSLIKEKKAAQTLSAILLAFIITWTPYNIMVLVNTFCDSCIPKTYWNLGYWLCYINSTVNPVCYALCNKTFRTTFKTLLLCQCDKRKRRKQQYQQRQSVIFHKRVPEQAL

[5] = target: Muscarinic acetylcholine receptor
Description: Inhibition of [3H]QNB binding against muscarinic acetylcholine receptor in rat brain.

[6] = species on record: Cavia porcellus; test: The compound was tested for inhibition against methacholine induced tonic contraction in guinea pig ileum; type: functional; settings: read-out: pA2 (converted)
[7] = species on record: Cavia porcellus; test: Inhibition of methacholine induced tonic contraction of guinea pig ileum; type: functional
[8] = target: Muscarinic acetylcholine receptor; test: Inhibition of [3H]pirenzepine binding against muscarinic acetylcholine receptor in rat brain.; type: tissue-based
[9] = target: Muscarinic acetylcholine receptor; test: Inhibition of [3H]QNB binding against muscarinic acetylcholine receptor in guinea pig ileum; type: tissue-based, Cavia porcellus
[10] = target: T2, Muscarinic acetylcholine receptor M1 (Rattus norvegicus, UniProt P08482); test: Binding activity against rat muscarinic acetylcholine receptor M1 using [3H]QNB as the radioligand
T2 sequence (P08482 whole entry): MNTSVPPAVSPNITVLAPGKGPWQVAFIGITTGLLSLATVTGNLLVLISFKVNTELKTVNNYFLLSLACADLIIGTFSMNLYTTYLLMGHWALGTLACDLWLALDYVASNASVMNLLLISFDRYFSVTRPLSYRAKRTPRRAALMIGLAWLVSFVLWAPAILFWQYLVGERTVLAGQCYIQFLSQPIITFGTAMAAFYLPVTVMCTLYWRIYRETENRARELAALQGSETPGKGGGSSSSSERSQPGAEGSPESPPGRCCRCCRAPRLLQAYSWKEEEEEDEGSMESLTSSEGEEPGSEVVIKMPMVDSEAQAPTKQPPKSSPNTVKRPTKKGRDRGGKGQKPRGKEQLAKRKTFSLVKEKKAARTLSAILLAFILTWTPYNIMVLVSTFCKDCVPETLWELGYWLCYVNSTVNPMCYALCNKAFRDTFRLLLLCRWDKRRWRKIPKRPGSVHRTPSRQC

[11] = target: Muscarinic acetylcholine receptor; remark: listed apart in the source
Description: Inhibition of [3H]OXO-M binding against muscarinic acetylcholine receptor in rat brain membranes

[12] = species on record: Cavia porcellus; test: The compound was tested for inhibition against tonic contraction in guinea pig ileum.; type: functional; settings: read-out: pA2 (converted)
[13] = species on record: Cavia porcellus; test: The compound was tested for inhibition against methacholine induced tonic contraction in guinea pig ileum.; type: functional; settings: read-out: pA2 (converted)
[14] = target: Muscarinic acetylcholine receptor; test: The compound was tested for inhibition of [3H]OXO-M binding against muscarinic acetylcholine receptor in rat brain membranes; type: cell membranes
[15] = target: T1, Muscarinic acetylcholine receptor M3; test: The compound was tested for binding activity against muscarinic acetylcholine receptor M3, using [3H]-QNB as the radioligand.
[16] = target: T2, Muscarinic acetylcholine receptor M1; test: The compound was tested for binding activity against muscarinic acetylcholine receptor M1, using [3H]QNB as the radioligand.

SMILES | -Log Kd [1] | Ki [2] [nM] | Kb [3] [nM] | Ki [4] [nM] | Ki [5] [nM] | Kb [6] [nM] | -Log Kd [7] | Ki [8] [nM] | Ki [9] [nM] | Ki [10] [nM] | Ki [11] [nM] | Kb [12] [nM] | Kb [13] [nM] | Ki [14] [nM] | Ki [15] [nM] | Ki [16] [nM]
CN1CC2CC1C[C@H](OC(=O)C(C)(c1ccccc1)c1ccccc1)C2 (some centres not stated) | 8.44 | 12.9 | 1.86 | 9.28 | 4.2 | 1.91 | 8.75 | 12.7 | 9.64 | 2.94 | – | – | – | – | – | –
CC(=O)O[C@H]1CC2CC(C1)N([C@H](C)c1ccccc1)C2 (some centres not stated) | – | – | – | 14900 | 10100 | – | – | – | 7700 | 12800 | 1950 | – | – | – | – | –
CC(=O)O[C@H]1CC2CC(C1)N(C(C)c1ccccc1)C2 (some centres not stated) | – | – | – | 3380 | 3530 | – | – | – | 4570 | 2770 | 113 | – | – | – | – | –
CC(=O)O[C@H]1CC2CC(C1)N(C)C2 (stereo in doubt; 8) | – | – | – | 8990 | 7530 | – | – | 9810 | 8400 | 9200 | 1150 | – | – | – | – | –
CC(C(=O)O[C@H]1CC2CC(C1)N(Cc1ccccc1)C2)(c1ccccc1)c1ccccc1 (some centres not stated) | 8.04 | 9.28 | 6.17 | 12.5 | 9.53 | – | 8.03 | 27.9 | 12.8 | 10.9 | – | 5.62 | 5.62 | – | – | –
CN1CC2CC1C[C@@H](OC(=O)C(C)(c1ccccc1)c1ccccc1)C2 (stereo in doubt; 1) | 10.46 | 0.196 | 0.0741 | 0.472 | 0.13 | – | – | 0.118 | 0.279 | 0.0881 | – | – | – | – | – | –
CC(=O)O[C@H]1CC2CC(C1)N(C)C2 (single isomer, unassigned; (+)) | – | – | – | 19700 | 8560 | – | – | – | 21000 | 13900 | – | – | – | 2170 | – | –
CN1CC2CC1C[C@@H](OC(=O)C(C)(c1ccccc1)c1ccccc1)C2 (single isomer, unassigned; (+)) | – | – | – | – | 0.0297 | – | – | – | 0.054 | – | – | – | – | – | 0.0986 | 0.0383
CN1CC2CC1C[C@H](OC(=O)C(c1ccccc1)c1ccccc1)C2 (some centres not stated) | 8.27 and 8.32 | 16.9 | 1.55 | 11.2 | 4.07 | 1.82 | – | 5.73 | 19.1 | 4.75 | – | – | – | – | – | –
CC(=O)O[C@@H]1C[C@@H]2C[C@H](C1)N([C@H](C)c1ccccc1)C2 (stereo in doubt; 12) | – | – | – | 29900 | 19100 | – | – | – | 12900 | 23100 | 23300 | – | – | – | – | –
CN1CC2CC1C[C@@H](OC(=O)C(C)(c1ccccc1)c1ccccc1)C2 (single isomer, unassigned; (-)) | – | – | – | 10.7 | 6.36 | – | – | – | 14.5 | 7.89 | – | – | – | – | – | –
CC(=O)O[C@@H]1CC2CC(C1)N(C)C2 (single isomer, unassigned; (-)) | – | – | – | 46700 | 23000 | – | – | – | 38100 | 22100 | 33900 | – | – | – | – | –
CC(=O)O[C@@H]1CC2CC(C1)N(C)C2 (stereo in doubt; 9) | – | – | – | 14100 | 8550 | – | – | 12500 | 11900 | 8620 | 7820 | – | – | – | – | –
CN1CC2CC1C[C@@H](OC(=O)C(c1ccccc1)c1ccccc1)C2 (some centres not stated) | 8.45 | 5.49 | 1.74 | 4.3 | 1.89 | 1.86 | – | 2.87 | 8.21 | 1.23 | – | – | – | – | – | –
CC(=O)O[C@H]1CC2CC(C1)N(C)C2 (single isomer, unassigned; (-)) | – | – | – | 4970 | 3730 | – | – | – | 4190 | 7210 | 6550 | – | – | – | – | –
CC(=O)O[C@@H]1CC2CC(C1)N(C)C2 (single isomer, unassigned; (+)) | – | – | – | 11300 | 6470 | – | – | – | 10400 | 7110 | 10400 | – | – | – | – | –
CC(=O)O[C@@H]1C[C@@H]2C[C@H](C1)N([C@H](C)c1ccccc1)C2 (stereo in doubt; 13) | – | – | – | 4280 | 4710 | – | – | – | 3750 | 9180 | 4150 | – | – | – | – | –
